# Source: paper PMC5008855 (Organic & biomolecular chemistry, 2016)
# Target: T1, human COX-2 enzyme (cyclooxygenase II) (Homo sapiens, UniProt P35354)
# T1 sequence (P35354 18-604): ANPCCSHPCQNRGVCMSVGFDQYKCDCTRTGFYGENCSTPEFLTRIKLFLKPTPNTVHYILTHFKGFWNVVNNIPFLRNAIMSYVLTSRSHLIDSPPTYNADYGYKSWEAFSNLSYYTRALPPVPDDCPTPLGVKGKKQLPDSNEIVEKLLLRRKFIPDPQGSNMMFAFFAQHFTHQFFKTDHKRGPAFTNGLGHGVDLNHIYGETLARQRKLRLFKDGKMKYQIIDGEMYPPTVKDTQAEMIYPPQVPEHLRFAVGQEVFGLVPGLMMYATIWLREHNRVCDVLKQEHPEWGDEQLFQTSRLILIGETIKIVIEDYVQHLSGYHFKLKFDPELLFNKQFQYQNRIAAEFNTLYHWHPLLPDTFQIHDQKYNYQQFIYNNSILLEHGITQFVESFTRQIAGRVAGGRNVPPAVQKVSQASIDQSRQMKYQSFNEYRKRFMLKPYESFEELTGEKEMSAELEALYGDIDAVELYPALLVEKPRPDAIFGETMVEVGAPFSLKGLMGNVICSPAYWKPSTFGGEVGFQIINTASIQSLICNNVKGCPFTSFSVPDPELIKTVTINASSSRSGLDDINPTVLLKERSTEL
# Assay: human COX-2 activity inhibition assay
# Assay type: biochemical
substance,measurement,value
homoneoprofen [compound 2],IC50,2000 nM
